The text below walks through data of US6603023B2 (priority 1996, dated 2003).

For one data set, the system named is CCRF-CEM/VBL100. Nature of the data set: cells. The class given is cell-based, human. As to conditions: read-out: IC50. The procedure: (§1) The drug-resistant cell lines were continuously cultured in the presence of the selecting agent, AD, DX, VBL or VM to maintain the drug resistant phenotypes. […] All cells were cultured in RPMI 1640-10% FBS at 37° C. 5% CO2 (see below).
(§2) The cells were cultured at an initial density of 5×10^4 cells/mL. They were maintained in a 5% CO2-humidified atmosphere at 37° C. in RPMI-1640 medium (GIBCO-BRL, Gaithersburg, Md.) containing penicillin (100 U/mL), streptomycin ([…]) (GIBCO-BRL) and 10% heat inactivate fetal bovine serum. Culture for cell suspension (such as for CCRF-CEM, P388 and sublines), were performed by the XTT-microculture tetrazonium method (Scudiero, D. A. et al., Cancer Res. 1988, 48, 4827-4833) in duplicate in 96-well microtiter plates.
(§3) 2′,3′-Bis(methoxy-4-nitro-5-sufophenyl)-5-[(phenylamino)carbonyl]2H-tetrazolium hyudroxide (XTT) was prepared at 1 mg/mL in prewarmed (37° C.) medium without serum. Phenazine methosulfate (PMS) and fresh XTT were mixed together to obtain 0.025 mM PMS-XTT solution (25 μL of the stock 5 mM PMS was added per 5 mL of 1 mg/mL XTT). Following a 72 h incubation, 50 μL of the assay aliquots were added to each well of the cell culture. After incubation at 37° C. for 4 h, absorbance at 450 nm and 630 nm was measured with a microplate reader (EL340, Bio-Tek Instruments, Inc., Winooski, Vt.).

Data set [1] deals with CCRF-CEM human T-cell acute lymphoblastic leukemia cell line. Nature of the data set: XTT cytotoxicity (cell growth inhibition), CCRF-CEM. As to conditions: for Rel. Value (potency relative to Epo B): CCRF-CEM leukemic cells. The procedure: The DC-3F hamster lung fibroblast cell line and its actinomycin D-selected sublines (DC-3F/ADII and DC-3F/ADX) were obtained from the Memorial Sloan-Kettering Cancer Center (MSKCC).
as §1, §2, §3
In general terms: Tetrazolium assays rely on reduction of a dye to a coloured formazan, in cell work by metabolically active cells.

The test system of data set [2] is human mammary carcinoma MX-1 xenograft. The procedure:
DMSO was used as a vehicle for epothilones. Each mouse received ≦40 μL DMSO in all experiments.
Athymic nude mice (nu/nu) were used for MX-1 and MCF-7/Adr human mammary carcinoma xenografts. Mice were obtained from Taconic Laboratory Animals and Service (Germantown, N.Y.: outbred, Swiss background).

The mark [3] stands for this setting: Table 5, CCRF-CEM/VLB, single determinations.
Setting [4] is: high doses: dEpoB 25, EpoB 0.6, Taxol 10, Vinblastine 0.4 mg/kg i.p. Q2D from day 7.
Where [5] appears, read: low doses: dEpoB 15, EpoB 0.3, Taxol 5, Vinblastine 0.2 mg/kg i.p. Q2D day 7-15.

Structures are written as SMILES. pIC50: −log10 of the molar value. Read-outs that look alike come from different tables or passages of the source.

With `CCC/C1=C\C[C@@H](/C(C)=C/c2csc(C)n2)OC(=O)C[C@H](O)C(C)(C)C(=O)[C@H](C)[C@@H](O)[C@@H](C)CCC1` [#17], the pIC50 was 6.60 in the data set with CCRF-CEM/VBL100 (setting [3]); 6.60 in the data set with CCRF-CEM/VBL100 (Table 7, CEM/VBL); 6.60 with CCRF-CEM/VBL100; 7.05 in data set [1]; 7.05 in data set [1] (Table 5, single determinations); 7.05 in data set [1] (Table 7, CEM). In data set [1], the “Rel. Value (potency relative to Epo B)” value is given as 1/257.
Turning to `C/C(=C\c1coc(C)n1)[C@@H]1C/C=C\CCC[C@H](C)[C@H](O)[C@@H](C)C(=O)C(C)(C)[C@@H](O)CC(=O)O1` [#20], the negative logarithm of the IC50 (pIC50) is 7.31 with CCRF-CEM/VBL100 (setting [3]); 7.31 in the data set on CCRF-CEM/VBL100 (Table 7, CEM/VBL); 7.31 in the data set with CCRF-CEM/VBL100; 7.52 in data set [1]; 7.52 in data set [1] (Table 5, single determinations); 7.52 in data set [1] (Table 7, CEM).
For the compound `C/C1=C/C[C@@H](/C(C)=C/c2ccccc2)OC(=O)C[C@H](O)C(C)(C)C(=O)[C@H](C)[C@@H](O)[C@@H](C)CCC1` [#22], the pIC50 with CCRF-CEM/VBL100 (setting [3]) is 6.84; with CCRF-CEM/VBL100 (Table 7, CEM/VBL) it was 6.84; in the data set with CCRF-CEM/VBL100, 6.84; in data set [1] (Table 5, single determinations), 7.01; in data set [1] (Table 7, CEM), 7.01.
Consider `CCC[C@@]12CCC[C@H](C)[C@H](O)[C@@H](C)C(=O)C(C)(C)[C@@H](O)CC(=O)O[C@H](/C(C)=C/c3csc(C)n3)C[C@@H]1O2` [#24], for which the pIC50 was 7.28 with CCRF-CEM/VBL100 (setting [3]); 7.28 in the data set on CCRF-CEM/VBL100 (Table 7, CEM/VBL); 7.28 in the data set on CCRF-CEM/VBL100; 8.11 in data set [1]; 8.11 in data set [1] (Table 5, single determinations); 8.11 in data set [1] (Table 7, CEM).
Take `CC/C1=C/C[C@@H](/C(C)=C/c2csc(C)n2)OC(=O)C[C@H](O)C(C)(C)C(=O)[C@H](C)[C@@H](O)[C@@H](C)CCC1` [#25]: the pIC50 with CCRF-CEM/VBL100 (setting [3]) is 7.11; in the data set on CCRF-CEM/VBL100 (Table 7, CEM/VBL), 7.11; in the data set with CCRF-CEM/VBL100, 7.11; in data set [1], 7.68; in data set [1] (Table 7, CEM), 7.67. Also, the “Rel. Value (potency relative to Epo B)” value in data set [1] is recorded as 1/60.
On to `CCC1=CCC(C(C)=Cc2csc(C)n2)OC(=O)CC(O)C(C)(C)C(=O)C(C)C(O)C(C)CCC1` (stereo not shown) [#26], for which the pIC50 was 6.71 in the data set on CCRF-CEM/VBL100 (setting [3]); 6.71 with CCRF-CEM/VBL100 (Table 7, CEM/VBL); 6.71 in the data set with CCRF-CEM/VBL100; 8.30 in data set [1]; 7.26 in data set [1] (Table 5, single determinations); 7.26 in data set [1] (Table 7, CEM). Also, the “Rel. Value (potency relative to Epo B)” value in data set [1] is listed as 1/157.
On to `CC[C@@]12CCC[C@H](C)[C@H](O)[C@@H](C)C(=O)C(C)(C)[C@@H](O)CC(=O)O[C@H](/C(C)=C/c3csc(C)n3)C[C@@H]1O2` [#27], for which the pIC50 in the data set with CCRF-CEM/VBL100 (setting [3]) was 8.14; in the data set on CCRF-CEM/VBL100 (Table 7, CEM/VBL), 8.14; with CCRF-CEM/VBL100 it was 8.14; in data set [1], 9.00; in data set [1] (Table 5, single determinations) it was 9.00; in data set [1] (Table 7, CEM) it was 9.00. Also, the “fold more potent than Taxol” value in data set [1] (CCRF-CEM cells) is over 2 fold.
In the case of `C/C1=C/C[C@@H](/C(C)=C/c2csc(C)n2)OC(=O)C[C@H](O)C(C)(C)C(=O)[C@H](C)[C@@H](O)[C@@H](C)CCC1` [Desoxyepothione B], the “cured on day 35 (no detectable tumor)” value in data set [2] (Desoxyepothilone B 25 mg/kg i.p. Q2D day 7-15) is reported as “(1/6 cured on day 35)”. Further, in data set [2] (setting [4]), the “Average Body Weight (change), Day 11” value was “+0.4 g”; the “Average Body Weight (change), Day 13” value is “+0.7 g”; the “Average Body Weight (change), Day 15” value was “+1.0 g”; the “Average Body Weight Change, Day 17” value is reported as “+0.7 g”. Also, in data set [2] (setting [4]), the “Average Tumor Volume (T/C), Day 11” value is 0.38 T/C; the “Average Tumor Volume (T/C), Day 13” value amounted to 0.11 T/C; the “Average Tumor Volume (T/C), Day 15” value amounted to 0.05 T/C; the “Average Tumor Volume (T/C), Day 17” value was 0.04 T/C. Besides, in data set [2] (setting [4]), the “Note: died (mice died/total)” value is 0/6 died. Also, the “Average Body Weight, Day 7” value in data set [2] (initial weight, first treatment day, high doses: dEpoB 25, EpoB 0.6, Taxol 10, Vinblastine 0.4 mg/kg i.p. Q2D from day 7) is 27.0 g. For the same compound, in data set [2] (setting [5]), the “Average Body Weight (change), Day 11” value is listed as “+0.8 g”; the “Average Body Weight (change), Day 13” value is “+1.1 g”; the “Average Body Weight (change), Day 15” value was “+1.6 g”; the “Average Body Weight Change, Day 17” value was “+1.5 g”. Also, in data set [2] (setting [5]), the “Average Tumor Volume (T/C), Day 11” value is listed as 0.65 T/C; the “Average Tumor Volume (T/C), Day 13” value is recorded as 0.46 T/C; the “Average Tumor Volume (T/C), Day 15” value is 0.49 T/C; the “Average Tumor Volume (T/C), Day 17” value amounted to 0.41 T/C. Moreover, the “Note: died (mice died/total)” value in data set [2] (setting [5]) is on record as 0/6 died.

For orientation: pIC50 means the IC50 on a negative log10 scale, so that one unit is a factor of ten.
